The results in this text go back to PubChem BioAssay AID493130 (Broad Institute, 2011).

Molecules are shown by their SMILES. Records with an inconclusive call do not appear. Active and inactive are the calls of the source.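 How the source made its calls: active means signal-lowering compounds whose fitted half-maximal concentration is at most ten times their highest tested dose; inconclusive means flat fit between -30 and -70%, or poor fit; inactive means flat within 30%, signal rising, or potency beyond limit.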

One assay has as its target POS-1 (Caenorhabditis elegans) binding to mex-3 RNA. Briefly: inhibitors of POS-1/mex-3 RNA binding, dose response, counter-screen for MEX-5 RNA-binding inhibitor project, biochemical, fluorescence polarization, cherry-picked samples, set 2 (AID 493130).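 Further: POS-1 as maltose binding protein fusion made in E. coli with FITC RNA.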 Particulars: POS-1/mex-3 RNA fluorescence polarization, 1 h.
Consider `CCCCCCc1cc2cc(C(=O)NC)c(=N)oc2cc1O`, for which the concentration at half-maximal activity (AC50) was 1.62 µM.
Take `N#CC1(C#N)C(c2ccccc2)OC23CCCCC2C1(C#N)C(=N)O3` (stereo not drawn): the AC50 is 4.61 µM.
Take `Cc1cccc(N2C(=O)NC(=O)/C(=C/c3cc4c(cc3[N+](=O)[O-])OCO4)C2=O)c1`: the AC50 is 2.94 µM.
`COc1ccc(C2C=C(c3ccc(Br)cc3)Nc3nc(N4C(=O)CCC4=O)nn32)cc1` (stereo not drawn): the AC50 is 8.26 µM.
Regarding `CC1(C)CC(=O)C2=C(C1)N=c1s/c(=C/c3ccc(F)c(F)c3)c(=O)n1C2c1ccc(F)cc1` (stereo not drawn), the AC50 was > 10 µM (inactive).
Turning to `O=C1c2ccccc2C(=O)N1/N=C/c1ccc(O)c(O)c1O`, the AC50 is 2.31 µM.
For the molecule `O=C(c1ccc(Cl)cc1)C1C2C(=O)N(c3ccccc3)C(=O)C2C2CCCN21` (stereo not drawn), the AC50 is 5.95 µM.
As to `O=c1nc2c(O)cccn2c2c1c(=O)[nH]c1ccccc12`, the AC50 is 2.46 µM.
For `CC1=C(C#N)C(=O)N(C2CCS(=O)(=O)C2)C(=O)/C1=C\c1ccco1` (stereo not drawn), the AC50 is 3.66 µM.
For `Cc1c2ccccc2nc2c(F)c(NCCO)c(F)c(F)c12`, the concentration at half-maximal activity (AC50) was 0.854 µM.
For the molecule `O=C1CCNc2ccc(-c3ccccc3)cc21`, the AC50 is 1.34 µM.
For `Cn1c(=O)c2[nH]c(-c3ccccc3)c(O)c2n(C)c1=O`, the concentration at half-maximal activity (AC50) is 2.27 µM.
The same measure, in the same setting: to `Nc1ccc2nc3c(=O)n(CCc4ccccc4)c(=O)[nH]c3nc2c1` belongs 1.22 µM; to `CN(C)[C@@H]1C(=O)C(C(N)=O)=C(O)[C@@]2(O)C(=O)C3=C(O)c4c(O)cccc4[C@@](C)(O)[C@H]3[C@H](O)[C@@H]12`, 4.07 µM.
Turning to `O=C(NNC(=O)c1ccccc1O)c1ccc(S(=O)(=O)Nc2ccccc2)cc1`, the concentration at half-maximal activity (AC50) was 4.17 µM.
The same measure, in the same setting: to `Cc1ccc(O)c(C(=O)c2cc(C#N)c(=O)n(-c3nccs3)c2)c1` belongs 4.09 µM; to `COc1ccc(-c2onc3ccc(C(C)=O)cc23)cc1`, < 0.08 µM; to `Cc1ccc(N2C(=O)NC(=O)/C(=C\c3ccc([N+](=O)[O-])o3)C2=O)cc1`, 7.36 µM.

The assay is the same for the next values; noted with them: POS-1/mex-3 RNA fluorescence polarization, 1 h; at 10 µM (top of the series).
For `Cc1ccc(N2C(=O)c3ccc(C(=O)O)cc3C2=O)cc1C`, the “activity change, negative = inhibition” value was “inactive”.
Consider `CC(=O)Nc1ccc(/C=N\NC(=O)CNS(=O)(=O)c2ccc([N+](=O)[O-])cc2)cc1`, for which the “activity change, negative = inhibition” value was “inactive”.
In the case of `COCCn1c(=N)c(S(=O)(=O)c2ccc(F)cc2)cc2c(=O)n3ccccc3nc21`, the “activity change, negative = inhibition” value was “inactive”.
Regarding `COc1ccc(/C=C2\CCCc3c2nc2ccc(C)cc2c3C(=O)O)cc1O`, the “activity change, negative = inhibition” value is “inactive”.
On to `COc1ccc(/C=C/C(=O)N/C(=C\c2ccco2)C(=O)NCCc2nc3ccccc3[nH]2)cc1`, for which the “activity change, negative = inhibition” value is “inactive”.
The same measure, in the same setting: the entry for `Cc1cccc(C(=O)NNc2ncnc3c2cnn3C)c1` is “inactive”; for `CNC(=O)/C(C#N)=C/c1ccc(-c2ccc(Cl)cc2)o1` it is “inactive”.
Consider `N=c1c(C(=O)NCC2CCCO2)cc2c(=O)n3ccccc3nc2n1Cc1ccc(Cl)cc1` (stereo not drawn), for which the “activity change, negative = inhibition” value is “inactive”.
On to `Nc1nc(-c2ccc(Cl)cc2)nnc1-c1ccc(Br)cc1`, for which the “activity change, negative = inhibition” value was “inactive”.
Turning to `CCOc1nc(-c2ccccc2)c2cc(Br)ccc2n1`, the “activity change, negative = inhibition” value was “inactive”.
As to `CCN(CC)c1ccc(/C=N/N2CCN(c3ccccc3OC)CC2)cc1`, the “activity change, negative = inhibition” value was “inactive”.
Take `COc1cccc(/C=N/NC(=O)N/N=C/c2cccc(OC)c2O)c1O`: the “activity change, negative = inhibition” value is “inactive”.
Same read-out and setting: to `Cc1cc2c(C)nc(N/N=C/c3ccc([N+](=O)[O-])cc3)nc2o1` belongs “inactive”.
For `CCc1nnc(NS(=O)(=O)c2ccc(N=Cc3c(O)n(-c4ccc(Cl)cc4)c(=O)[nH]c3=O)cc2)s1`, the “activity change, negative = inhibition” value was “inactive”.
The same measure, in the same setting: to `CN(C)C1C(=O)C(C(N)=O)=C(O)C2(O)C(=O)C3=C(O)c4c(O)cccc4C(C)(O)C3CC12` (stereo not drawn) belongs “inactive”; to `CCOC(=O)CC1=C(C(=O)OCC)C(c2ccc(OC)c(OC)c2)C(C#N)=C(N)O1` (stereo not drawn), “inactive”.
On to `N=C1C(c2nc3ccccc3[nH]2)=C(O)CN1c1ccccc1`, for which the “activity change, negative = inhibition” value was “inactive”.
For the molecule `CC1=NOC(=O)/C1=C/c1ccc2c(c1)OCO2`, the “activity change, negative = inhibition” value is “inactive”.
For `COC(=O)COc1ccc2c(c1)O/C(=C\c1cccc([N+](=O)[O-])c1)C2=O`, the “activity change, negative = inhibition” value was “inactive”.
Take `CC1=NN(C(N)=S)C(=O)C1N=Nc1cccc(Cl)c1C` (stereo not drawn): the “activity change, negative = inhibition” value was “inactive”.
Still for that read-out and setting: to `CN1CCc2c(sc(NC(=O)c3ccc(S(=O)(=O)N4CCCC4)cc3)c2C(N)=O)C1` belongs “inactive”; to `CCCCN1C=CC(=C2C(=O)c3ccccc3C2=O)C=C1`, “inactive”; to `CC(=O)c1c2c3c(c(Br)ccc3n(C)c1=O)C(=O)c1ccccc1-2`, “inactive”.
Same read-out and setting: to `O=C(O)CSc1ncnc2nc[nH]c12` belongs “inactive”.
Regarding `Oc1cc2c(c(Cl)c1O)CCNCC2c1ccccc1` (stereo not drawn), the “activity change, negative = inhibition” value is “inactive”.
Consider `Cc1nnc(SCc2nc3sc4c(c3c(=O)[nH]2)CCCC4)n(N)c1=O`, for which the “activity change, negative = inhibition” value is “inactive”.
Take `Cc1sc2ncnc(N/N=C/c3ccccc3O)c2c1C`: the “activity change, negative = inhibition” value was “inactive”.
As for `CCOc1cc(/C=N/Nc2nc(=O)[nH]nc2C)ccc1O`, the “activity change, negative = inhibition” value was “inactive”.
Same read-out and setting: to `CN(C)c1ncnc2c1NC1=C(S2)C(=NCCCC(=O)O)CC(C)(C)C1` belongs “inactive”; to `Nc1nc(N)c2[nH]cnc2n1`, “inactive”; to `Oc1c(Cl)cc(Cl)c2c1NCCC2`, “inactive”.
Take `COc1ccc2c(c1)-c1ccccc1S(=O)(=O)N2C(C)=O`: the “activity change, negative = inhibition” value was “inactive”.
For the molecule `COCC1CCN(Cc2c(C(=O)N3CCN(C4CCCCC4)CC3)nc3ccccn23)C1` (stereo not drawn), the “activity change, negative = inhibition” value is “inactive”.
On the same count and under the same terms, the entry for `Cc1cccc(-n2c(N)c(-c3nc4ccccc4n3C)c3nc4ccccc4nc32)c1` is “inactive”; for `O=C(Nc1cccc2ncccc12)c1ccccc1[N+](=O)[O-]` it is “inactive”; for `CCCOc1ccc([C@@H]2C3CN(C(=O)OCC)CC=C3C(C#N)=C(N)C2(C#N)C#N)cc1OC` (stereo partly drawn) it is “inactive”.
`O=C(Cc1cccs1)Nc1nnc(SCc2ccc(Br)cc2)s1`: the “activity change, negative = inhibition” value was “inactive”.
In the case of `O=C(O)CCCCCN1C(=O)C(O)=C(C(=O)/C=C/c2ccccc2)C1c1ccccc1[N+](=O)[O-]` (stereo not drawn), the “activity change, negative = inhibition” value is “inactive”.
The same measure, in the same setting: to `CC(C)CNC(=O)c1ccccc1Oc1ccccc1` belongs “inactive”; to `N=C1C(c2nc3ccccc3[nH]2)=C(O)CN1c1ccc(F)cc1`, “inactive”.
In the case of `Cc1c(C#N)c(O)[nH]c(=O)c1N=Nc1ccc(S(N)(=O)=O)cc1`, the “activity change, negative = inhibition” value was “inactive”.
Consider `O=C(O)CCN1C(=O)/C(=C\c2ccc(OCc3ccccc3)c(OCc3ccccc3)c2)SC1=S`, for which the “activity change, negative = inhibition” value was “inactive”.
Regarding `O=C(O)c1ccc(N2C(=O)c3cccc4c(C(=O)O)ccc(c34)C2=O)cc1`, the “activity change, negative = inhibition” value was “inactive”.
Regarding `Cc1cccn2c(=O)c3cc(C(=O)NCCCn4ccnc4)n(C)c3nc12`, the “activity change, negative = inhibition” value was “inactive”.
Take `Cc1nn(C(C)C(=O)NNC(=S)Nc2ccc(Cl)cc2)c(C)c1[N+](=O)[O-]` (stereo not drawn): the “activity change, negative = inhibition” value was “inactive”.
Regarding `CC(=O)Nc1ccc(S(=O)(=O)/N=C2/NC(=O)/C(=C\c3ccco3)S2)cc1`, the “activity change, negative = inhibition” value is “inactive”.
Consider `N#CCCn1c2ccccc2c2nc3ccccc3nc21`, for which the “activity change, negative = inhibition” value was “inactive”.
For `O=[N+]([O-])c1cc([N+](=O)[O-])c2cccnc2c1Oc1ccccc1O`, the “activity change, negative = inhibition” value was “inactive”.
As for `O=[N+]([O-])c1ccc(-c2cn3nc(-c4ccccc4)c(-c4ccccc4)nc3n2)cc1`, the “activity change, negative = inhibition” value is “inactive”.
For `N[C@@H](Cc1ccccc1)C(=O)N1CCC(C(=O)NCC(=O)Nc2ccc(F)cc2)CC1`, the “activity change, negative = inhibition” value was “inactive”.
The same measure, in the same setting: to `O=C(N/N=C/c1cc2c(cc1Cl)OCO2)c1ccccn1` belongs “inactive”.
As to `Cc1ccc(C(=O)NNc2ncnc3c2cnn3C)cc1`, the “activity change, negative = inhibition” value is “inactive”.
As for `O=c1[nH]c2ccccc2n1Cc1ccc(Cl)cc1`, the “activity change, negative = inhibition” value was “inactive”.
With `CC(=O)NN1C(=O)/C(=C/c2ccc(Br)o2)SC1=S`, the “activity change, negative = inhibition” value is “inactive”.
In the case of `CCN(CC)c1ccc(N2C(=O)c3ccccc3C2=O)cc1`, the “activity change, negative = inhibition” value was “inactive”.
Regarding `NS(=O)(=O)c1ccc(N=Nc2ccc(=O)[nH]c2O)cc1`, the “activity change, negative = inhibition” value was “inactive”.
Same read-out and setting: to `Cc1nc2ccc3nc(NC(=O)c4ccc5c(c4)OCCO5)sc3c2s1` belongs “inactive”; to `CC1CN2C(c3ccc(Cl)cc3)=CSC2=N1` (stereo not drawn), “inactive”; to `FC(F)(F)c1ccc(Cl)c(-n2c(-c3cc(-c4ccco4)[nH]n3)n[nH]c2=S)c1`, “inactive”.
Regarding `O=[N+]([O-])c1ccc(C2=CSC3=NCCN23)cc1`, the “activity change, negative = inhibition” value is “inactive”.
As to `CCNC(=S)NNC(=O)c1ccccn1`, the “activity change, negative = inhibition” value is “inactive”.
Regarding `CN(N)N=Nc1nc2c([nH]1)c(=O)n(C)c(=O)n2C`, the “activity change, negative = inhibition” value was “inactive”.
Turning to `CCN(CC)CCOc1ccc2c(c1)C(=NNC(=O)c1ccccn1)c1cc(OCCN(CC)CC)ccc1-2`, the “activity change, negative = inhibition” value was “inactive”.
Turning to `O=c1c2ccccc2nc(/C=C/c2ccc([N+](=O)[O-])o2)n1-c1ccc(O)cc1`, the “activity change, negative = inhibition” value was “inactive”.
As to `COc1cc(CCC(=O)Nc2ccc(Cl)c(C(F)(F)F)c2)cc(OC)c1OC`, the “activity change, negative = inhibition” value is “inactive”.
